Assay results reported in PubChem BioAssay AID248 (DTP/NCI, 2004).
Several values for one entry are separate records, joined by “and”; a condition that tells them apart may be missing. Equal values may be shown once. Toxic doses and inconclusive results are not listed. Cut-off read from the data, not from the text of the source: active = T/C of 150% or more; inactive = T/C below 125%.

System: L1210 leukemia ip in BDF1 mice, survival T/C
Test: NCI In Vivo Anticancer Drug Screen. Data for tumor model L1210 Leukemia (intraperitoneal) in B6D2F1 (BDF1) mice
Settings: higher = longer survival
Outline: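 Ratio derived from survival: compound-dosed mice over vehicle-dosed mice, all bearing a transplantable tumor.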

Measured: T/C

CC[C@](O)(C(=O)O)c1cc2n(c(=O)c1CO)Cc1cc3ccccc3nc1-2
inactive: endpoint: mean survival time, dose: 0.12 mg/kg/injection, schedule: Q#A X Z (ip), vehicle: saline 106 % of control | endpoint: mean survival time, dose: 0.18 mg/kg/injection, schedule: Q01DX009 (ip), vehicle: saline 105 % of control and 108 % of control | endpoint: mean survival time, dose: 0.25 mg/kg/injection, schedule: Q01DX006 (iv), vehicle: saline 107 % of control | endpoint: mean survival time, dose: 0.25 mg/kg/injection, schedule: Q01DX009 (ip), vehicle: saline 98 % of control | endpoint: mean survival time, dose: 0.25 mg/kg/injection, schedule: Q01DX010 (ip), vehicle: saline 117 % of control | endpoint: mean survival time, dose: 0.25 mg/kg/injection, schedule: Q01DX Z (im), vehicle: saline 107 % of control | endpoint: mean survival time, dose: 0.25 mg/kg/injection, schedule: Q01DX Z (sc), vehicle: saline 107 % of control | endpoint: mean survival time, dose: 0.25 mg/kg/injection, schedule: Q## X Z (ip), vehicle: saline 97 % of control | endpoint: mean survival time, dose: 0.25 mg/kg/injection, schedule: Q#A X Z (ip), vehicle: saline 114 % of control | endpoint: mean survival time, dose: 0.35 mg/kg/injection, schedule: Q01DX009 (ip), vehicle: saline 106 % of control and 113 % of control | endpoint: mean survival time, dose: 0.5 mg/kg/injection, schedule: Q01DX006 (iv), vehicle: saline 103 % of control | endpoint: mean survival time, dose: 0.5 mg/kg/injection, schedule: Q01DX009 (ip), vehicle: saline 104 % of control and 112 % of control | endpoint: mean survival time, dose: 0.5 mg/kg/injection, schedule: Q01DX009 (oral), vehicle: water 97 % of control | endpoint: mean survival time, dose: 0.5 mg/kg/injection, schedule: Q01DX Z (im), vehicle: saline 108 % of control | endpoint: mean survival time, dose: 0.5 mg/kg/injection, schedule: Q01DX Z (ip), vehicle: saline 122 % of control | endpoint: mean survival time, dose: 0.5 mg/kg/injection, schedule: Q01DX Z (oral), vehicle: saline 105 % of control | endpoint: mean survival time, dose: 0.5 mg/kg/injection, schedule: Q01DX Z (sc), vehicle: saline 107 % of control | endpoint: mean survival time, dose: 0.5 mg/kg/injection, schedule: Q## X Z (ip), vehicle: saline 103 % of control | endpoint: mean survival time, dose: 0.7 mg/kg/injection, schedule: Q01DX009 (ip), vehicle: saline 106 % of control and 108 % of control | endpoint: mean survival time, dose: 0.75 mg/kg/injection, schedule: Q03DX Z (ip), vehicle: saline 101 % of control | endpoint: mean survival time, dose: 1.0 mg/kg/injection, schedule: Q01DX006 (iv), vehicle: saline 111 % of control | endpoint: mean survival time, dose: 1.0 mg/kg/injection, schedule: Q01DX009 (ip), vehicle: saline 111 % of control and 112 % of control | endpoint: mean survival time, dose: 1.0 mg/kg/injection, schedule: Q01DX009 (oral), vehicle: water 113 % of control | endpoint: mean survival time, dose: 1.0 mg/kg/injection, schedule: Q01DX Z (im), vehicle: saline 113 % of control | endpoint: mean survival time, dose: 1.0 mg/kg/injection, schedule: Q01DX Z (oral), vehicle: saline 117 % of control | endpoint: mean survival time, dose: 1.0 mg/kg/injection, schedule: Q01DX Z (sc), vehicle: saline 113 % of control | endpoint: mean survival time, dose: 1.0 mg/kg/injection, schedule: Q## X Z (ip), vehicle: saline 114 % of control | endpoint: mean survival time, dose: 1.3 mg/kg/injection, schedule: Q## X008 (ip), vehicle: saline 102 % of control | endpoint: mean survival time, dose: 1.5 mg/kg/injection, schedule: Q03DX Z (ip), vehicle: saline 109 % of control | endpoint: mean survival time, dose: 2.0 mg/kg/injection, schedule: Q01DX001 (ip), vehicle: saline 106 % of control and 113 % of control (2×) | endpoint: mean survival time, dose: 2.0 mg/kg/injection, schedule: Q01DX006 (iv), vehicle: saline 114 % of control and 122 % of control | endpoint: mean survival time, dose: 2.0 mg/kg/injection, schedule: Q01DX010 (ip), vehicle: saline 110 % of control | endpoint: mean survival time, dose: 2.0 mg/kg/injection, schedule: Q01DX010 (oral), vehicle: saline 97 % of control | endpoint: mean survival time, dose: 2.0 mg/kg/injection, schedule: Q01DX Z (im), vehicle: saline 116 % of control | endpoint: mean survival time, dose: 2.0 mg/kg/injection, schedule: Q01DX Z (sc), vehicle: saline 114 % of control and 120 % of control | endpoint: mean survival time, dose: 2.0 mg/kg/injection, schedule: Q07DX Z (ip), vehicle: saline 109 % of control | endpoint: mean survival time, dose: 2.5 mg/kg/injection, schedule: Q01DX001 (oral), vehicle: water 111 % of control | endpoint: mean survival time, dose: 2.5 mg/kg/injection, schedule: Q04DX002 (ip), vehicle: saline 100 % of control and 108 % of control | endpoint: mean survival time, dose: 2.5 mg/kg/injection, schedule: Q04DX003 (ip), vehicle: saline 110 % of control | endpoint: mean survival time, dose: 2.5 mg/kg/injection, schedule: Q## X003 (ip), vehicle: saline 105 % of control and 109 % of control | endpoint: mean survival time, dose: 2.5 mg/kg/injection, schedule: Q## X003 (oral), vehicle: saline 107 % of control | endpoint: mean survival time, dose: 2.5 mg/kg/injection, schedule: Q## X003 (oral), vehicle: water 107 % of control | endpoint: mean survival time, dose: 2.5 mg/kg/injection, schedule: Q## X008 (ip), vehicle: saline 98 % of control | endpoint: mean survival time, dose: 2.6 mg/kg/injection, schedule: Q## X024 (ip), vehicle: saline 101 % of control | endpoint: mean survival time, dose: 2.6 mg/kg/injection, schedule: Q## X024 (oral), vehicle: water 100 % of control | endpoint: mean survival time, dose: 3.0 mg/kg/injection, schedule: Q01DX Z (sc), vehicle: saline 120 % of control | endpoint: mean survival time, dose: 3.0 mg/kg/injection, schedule: Q03DX Z (ip), vehicle: saline 118 % of control | endpoint: mean survival time, dose: 4.0 mg/kg/injection, schedule: Q01DX001 (ip), vehicle: saline 105 % of control and 110 % of control and 116 % of control | endpoint: mean survival time, dose: 4.0 mg/kg/injection, schedule: Q01DX009 (oral), vehicle: water 120 % of control | endpoint: mean survival time, dose: 4.0 mg/kg/injection, schedule: Q01DX Z (ip), vehicle: saline 97 % of control and 116 % of control | endpoint: mean survival time, dose: 4.0 mg/kg/injection, schedule: Q01DX Z (oral), vehicle: saline 101 % of control | endpoint: mean survival time, dose: 4.5 mg/kg/injection, schedule: Q01DX006 (iv), vehicle: saline 122 % of control | endpoint: mean survival time, dose: 4.5 mg/kg/injection, schedule: Q01DX Z (im), vehicle: saline 93 % of control | endpoint: mean survival time, dose: 5.0 mg/kg/injection, schedule: Q01DX001 (oral), vehicle: water 115 % of control | endpoint: mean survival time, dose: 5.0 mg/kg/injection, schedule: Q04DX002 (ip), vehicle: saline 110 % of control and 113 % of control | endpoint: mean survival time, dose: 5.0 mg/kg/injection, schedule: Q04DX003 (ip), vehicle: saline 116 % of control | endpoint: mean survival time, dose: 5.0 mg/kg/injection, schedule: Q04DX003 (ip), vehicle: water 118 % of control and 120 % of control | endpoint: mean survival time, dose: 5.0 mg/kg/injection, schedule: Q## X003 (ip), vehicle: saline 114 % of control | endpoint: mean survival time, dose: 5.0 mg/kg/injection, schedule: Q## X003 (oral), vehicle: water 121 % of control | endpoint: mean survival time, dose: 5.0 mg/kg/injection, schedule: Q## X008 (ip), vehicle: saline 105 % of control | endpoint: mean survival time, dose: 5.0 mg/kg/injection, schedule: Q## X024 (ip), vehicle: saline 120 % of control | endpoint: mean survival time, dose: 6.0 mg/kg/injection, schedule: Q01DX001 (ip), vehicle: saline 110 % of control | endpoint: mean survival time, dose: 6.5 mg/kg/injection, schedule: Q01DX006 (iv), vehicle: saline 112 % of control | endpoint: mean survival time, dose: 6.5 mg/kg/injection, schedule: Q01DX Z (sc), vehicle: saline 105 % of control | endpoint: mean survival time, dose: 8.0 mg/kg/injection, schedule: Q01DX001 (ip), vehicle: saline 105 % of control and 115 % of control | endpoint: mean survival time, dose: 8.0 mg/kg/injection, schedule: Q01DX009 (ip), vehicle: saline 120 % of control | endpoint: mean survival time, dose: 10.0 mg/kg/injection, schedule: Q01DX001 (ip), vehicle: saline 112 % of control | endpoint: mean survival time, dose: 10.0 mg/kg/injection, schedule: Q## X008 (ip), vehicle: saline 117 % of control | endpoint: mean survival time, dose: 10.0 mg/kg/injection, schedule: Q## X008 (oral), vehicle: water 121 % of control | endpoint: mean survival time, dose: 19.0 mg/kg/injection, schedule: Q03DX Z (ip), vehicle: saline 121 % of control | endpoint: mean survival time, dose: 50.0 mg/kg/injection, schedule: Q04DX003 (ip), vehicle: saline 105 % of control | endpoint: mean survival time, dose: 80.0 mg/kg/injection, schedule: Q04DX003 (ip), vehicle: saline 114 % of control | endpoint: mean survival time, dose: 160.0 mg/kg/injection, schedule: Q## X003 (ip), vehicle: saline 110 % of control | endpoint: mean survival time, dose: 125.0 micrograms/kg/injection, schedule: Q01DX Z (ip), vehicle: saline 111 % of control | endpoint: mean survival time, dose: 250.0 micrograms/kg/injection, schedule: Q01DX Z (ip), vehicle: saline 114 % of control | endpoint: median survival time, dose: 5.0 mg/kg/injection, schedule: Q04DX003 (ip), vehicle: saline 122 % of control | endpoint: median survival time, dose: 50.0 mg/kg/injection, schedule: Q01DX001 (ip), vehicle: saline 110 % of control and 119 % of control | endpoint: median survival time, dose: 83.3 mg/kg/injection, schedule: Q04DX003 (ip), vehicle: saline 110 % of control and 121 % of control | endpoint: median survival time, dose: 100.0 mg/kg/injection, schedule: Q04DX003 (ip), vehicle: saline 94 % of control and 116 % of control | endpoint: median survival time, dose: 148.0 mg/kg/injection, schedule: Q01DX001 (ip), vehicle: saline 115 % of control

O=C1c2[nH]c3ccccc3c2CC2CC12 (stereo unspecified)
inactive: endpoint: mean survival time, dose: 75.0 mg/kg/injection, schedule: Q01DX001 (ip), vehicle: saline 96 % of control | endpoint: mean survival time, dose: 150.0 mg/kg/injection, schedule: Q01DX001 (ip), vehicle: saline 104 % of control | endpoint: mean survival time, dose: 300.0 mg/kg/injection, schedule: Q01DX001 (ip), vehicle: saline 101 % of control

N#C/C(=C\C1CC(Br)CC(Br)C1O)C1CCC([N+](=O)[O-])CC1 (stereo unspecified)
inactive: endpoint: mean survival time, dose: 100.0 mg/kg/injection, schedule: Q04DX002 (ip), vehicle: saline with Tween-80 90 % of control | endpoint: mean survival time, dose: 200.0 mg/kg/injection, schedule: Q04DX002 (ip), vehicle: saline with Tween-80 90 % of control | endpoint: mean survival time, dose: 400.0 mg/kg/injection, schedule: Q04DX002 (ip), vehicle: saline with Tween-80 93 % of control
